Test results published in patent US9458217B2, “Methods of managing graft versus host disease” (EMORY UNIVERSITY, priority 2013, dated 2016).
Entries after “also recorded” stand apart in the source; their conditions may differ. Where no end group is shown, it is not given here.

Experiments:
cross-dressed CD11c+ APC = experiment: Drug inhibition of trogocytosis in MLR (frequency of cross-dressed CD11c+ APC by flow cytometry); type: cell-based, mice
Experimental: The frequency of cross-dressed CD11c+ APC on day 6 of MLR was assessed by flow cytometry.
Whether drugs can inhibit cross-dressed APCs from facilitating antigen presentation to donor T cells and prevent GVHD following allo-HSCT was tested. Cross-dressed donor CD11c+ APCs were generated in vivo following allo-HSCT (FIG. 1).

T cells = experiment: T cell proliferation in primary MLR with drug-treated bone marrow; type: cell-based, mice
CD11c+ cells = experiment: Cell viability / direct cytotoxicity on drug exposure in vitro; details: at the doses that inhibit trogocytosis (FIG. 3)

CC(=O)O[C@H]1C(=O)[C@@]2(C)[C@H]([C@H](OC(=O)c3ccccc3)[C@]3(O)C[C@H](OC(=O)[C@H](O)[C@@H](NC(=O)c4ccccc4)c4ccccc4)C(C)=C1C3(C)C)[C@]1(OC(C)=O)CO[C@@H]1C[C@@H]2O [paclitaxel]
exchange of plasma membrane fragments (trogocytosis; frequency of cross-dressed CD11c+ APC) (cross-dressed CD11c+ APC; in vitro generated cross-dressed CD11c+ cells, day 6 of MLR, flow cytometry (FIG. 3)): inhibited
semi-direct presentation of allo-antigen to T cells (cross-dressed CD11c+ APC; summary statement of the data): reduce semi-direct presentation
T cell proliferation in primary MLR (T cells; bone marrow treated with 0.05 uM, compared to non-drug treated bone marrow): significantly decreased
allo-reactivity (T cells; summary statement of the data): reduce allo-reactivity
cell viability / direct cytotoxic effects (CD11c+ cells): without direct cytotoxic effects; also recorded: preserving cell viability

KPRRPYTDNYTRLRKQMAVKKYLNSILN-NH2 [VIPHyb]
cell viability / direct cytotoxic effects (CD11c+ cells): without direct cytotoxic effects
cell viability / direct cytotoxic effects (CD11c+ cells; listed as VIP antagonist): preserving cell viability
